The source of these data is patent publication US8575091B1, “Amylin analogues and pharmaceutical compositions thereof” (Novo Nordisk A/S, priority 2012, dated 2013).

In assay [1] the target is T1, human amylin receptor (amylin 3(a) receptor: human calcitonin receptor + RAMP-3) (Homo sapiens, UniProt O60896+P30988).
T1 construct: expressed in transfected cells
T1 sequence (P30988 25-474): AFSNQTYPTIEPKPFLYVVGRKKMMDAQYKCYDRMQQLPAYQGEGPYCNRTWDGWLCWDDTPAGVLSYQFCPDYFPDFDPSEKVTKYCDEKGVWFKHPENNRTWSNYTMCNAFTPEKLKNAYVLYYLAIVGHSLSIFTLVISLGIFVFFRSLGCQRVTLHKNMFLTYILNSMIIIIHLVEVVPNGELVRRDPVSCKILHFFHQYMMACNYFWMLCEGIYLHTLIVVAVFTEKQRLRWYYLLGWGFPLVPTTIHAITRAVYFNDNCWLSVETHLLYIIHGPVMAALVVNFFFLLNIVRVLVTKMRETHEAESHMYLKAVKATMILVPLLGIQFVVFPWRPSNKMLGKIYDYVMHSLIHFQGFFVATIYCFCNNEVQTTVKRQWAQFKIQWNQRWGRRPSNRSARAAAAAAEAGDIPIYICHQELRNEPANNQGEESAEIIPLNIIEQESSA
T1 sequence (O60896 24-148 partner): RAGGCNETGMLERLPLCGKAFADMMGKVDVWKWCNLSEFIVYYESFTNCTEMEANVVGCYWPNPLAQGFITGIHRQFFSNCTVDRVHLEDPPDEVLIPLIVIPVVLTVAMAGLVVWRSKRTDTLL
The assay is described as follows: Assay (II)a functional assay, human amylin receptor (CRE luciferase, BHK cells). The format is cell-based. Particulars: for EC50: read-out: hAmylin-R funct. EC50.

The next assay addresses T2, human amylin receptor (Homo sapiens, UniProt O60896+P30988).
T2 construct: expressed in transfected cells
T2 sequence (P30988 25-474): T1 sequence (P30988 25-474)
T2 sequence (O60896 24-148 partner): T1 sequence (O60896 24-148 partner)
The assay is described as follows: Assay (V) binding to the human amylin receptor (SPA, 125I-rat amylin). Particulars: human amylin receptor membranes, SPA; read-out: hAmylin-R bind IC50. The method, boiled down: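 IC50, taken as receptor affinity, came from one-site binding competition analysis of scintillation proximity counts. Amylin 3(a)/CRE-luc cell membranes (35 ng/μL final) were mixed with SPA beads (0.05 mg/well) in 50 mM Hepes pH 7.4 containing CaCl2, MgCl2, 0.1% OA and 0.02% Tween20.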

Assay [2] deals with T3, human calcitonin receptor (Homo sapiens, UniProt P30988).
T3 construct: expressed in transfected cells
T3 sequence (P30988 25-474): T1 sequence (P30988 25-474)
As to the kind of experiment: Assay (VII) binding to the human calcitonin receptor (SPA, 125I-Calcitonin).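 Also: cell membranes coupled to SPA beads, competitive displacement read by scintillation counting, IC50 derived from a one-site competition fit as a measure of receptor affinity.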 To be noted: read-out: hCTR bind IC50.

Assay [3] addresses T3, human calcitonin receptor. The assay is described as follows: Assay (II)a functional assay, human calcitonin receptor (CRE luciferase, BHK cells).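 Also: luminescence from a CRE-driven luciferase reporter, read by single photon counting after cells were exposed to test samples for 3 h at 37 °C under 5% CO2.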 Type of assay: cell-based. Particulars: read-out: hCTR funct. EC50.
[4] abbreviates: functional assay, human amylin receptor.

The EC50 is the midpoint of the concentration-response curve. The IC50 is the midpoint of a concentration-inhibition curve.

Where two headings read alike, the source gives them in different places. Numbered stars: 1 amine (or outer) side, 2 acyl side, 3 side chain; on linkers, the order of the positions; unused ones are H or OH. Bridge positions count the residues as written; N and C are the ends. Side chains are listed from the residue outwards. Peptide text beside a SMILES is read from it. * marks the point of attachment. C20 diacid = O=C(O)CCCCCCCCCCCCCCCCCCC(=O)*; γGlu = O=C(O)[C@H](CCC(=O)[*:2])N[*:1]; AEEA = NCCOCCOCC(=O)O

As for `CC[C@H](C)[C@H](NC(=O)[C@H](C)NC(=O)CNC(=O)[C@H](Cc1ccccc1)NC(=O)[C@H](CC(N)=O)NC(=O)[C@@H]1CCCN1C(=O)[C@H](CO)NC(=O)[C@H](CO)NC(=O)[C@H](Cc1c[nH]cn1)NC(=O)[C@H](CCCNC(=N)N)NC(=O)[C@H](CC(C)C)NC(=O)[C@H](Cc1ccccc1)NC(=O)[C@H](CC(N)=O)NC(=O)[C@H](C)NC(=O)[C@H](CC(C)C)NC(=O)[C@H](CCCNC(=N)N)NC(=O)[C@H](CCC(N)=O)NC(=O)[C@@H](NC(=O)[C@H](C)NC(=O)[C@@H]1CSSC[C@H](NC(=O)[C@@H](N)CCCCNC(=O)CC[C@H](NC(=O)CCCCCCCCCCCCCCCCCCC(=O)O)C(=O)O)C(=O)N[C@@H](CC(N)=O)C(=O)N[C@@H]([C@@H](C)O)C(=O)N[C@@H](C)C(=O)N[C@@H]([C@@H](C)O)C(=O)N1)[C@@H](C)O)C(=O)N1CCC[C@H]1C(=O)N[C@@H](CO)C(=O)N[C@@H](CO)C(=O)N[C@H](C(=O)N[C@@H](CC(N)=O)C(=O)N[C@H](C(=O)NCC(=O)N[C@@H](CO)C(=O)N[C@@H](Cc1c[nH]cn1)C(=O)N[C@H](C(=O)N[C@@H](Cc1ccc(O)cc1)C(N)=O)[C@@H](C)O)C(C)C)[C@@H](C)O` [Example 60], the EC50 in assay [1] (setting [4]) is 0.351 nM; in assay [3], 5.36 nM. Further, the figures for the 50% inhibitory concentration (IC50) (at human amylin receptor; in assay [2]) were 0.695 nM and 31.4 nM, respectively.
In the same order, the values of `CC[C@H](C)[C@H](NC(=O)[C@H](C)NC(=O)CNC(=O)[C@H](Cc1ccccc1)NC(=O)[C@H](CC(N)=O)NC(=O)[C@@H]1CCCN1C(=O)[C@H](CO)NC(=O)[C@H](CO)NC(=O)[C@H](Cc1c[nH]cn1)NC(=O)[C@H](CCCNC(=N)N)NC(=O)[C@H](CC(C)C)NC(=O)[C@H](Cc1ccccc1)NC(=O)[C@H](Cc1c[nH]cn1)NC(=O)[C@H](C)NC(=O)[C@H](CC(C)C)NC(=O)[C@H](CCCNC(=N)N)NC(=O)[C@H](CCC(N)=O)NC(=O)[C@@H](NC(=O)[C@H](C)NC(=O)[C@@H]1CSSC[C@H](NC(=O)[C@@H](N)CCCCNC(=O)COCCOCCNC(=O)CC[C@H](NC(=O)CCCCCCCCCCCCCCCCCCC(=O)O)C(=O)O)C(=O)N[C@@H](CC(N)=O)C(=O)N[C@@H]([C@@H](C)O)C(=O)N[C@@H](C)C(=O)N[C@@H]([C@@H](C)O)C(=O)N1)[C@@H](C)O)C(=O)N1CCC[C@H]1C(=O)N[C@@H](CO)C(=O)N[C@@H](CO)C(=O)N[C@H](C(=O)N1CCC[C@H]1C(=O)N[C@H](C(=O)NCC(=O)N[C@@H](CO)C(=O)N[C@@H](CC(N)=O)C(=O)N[C@H](C(=O)N[C@@H](Cc1ccc(O)cc1)C(N)=O)[C@@H](C)O)C(C)C)[C@@H](C)O` [Example 61] (H-K([AEEA-γGlu-C20 diacid])CNTATCATQRLAHFLRHSSPNFGAIPSSTPVGSNTY-NH2; disulfide 2-7) are 0.051 nM, 0.554 nM, 0.122 nM and 8.11 nM.
The corresponding values for `CC[C@H](C)[C@H](NC(=O)[C@H](C)NC(=O)CNC(=O)[C@H](Cc1ccccc1)NC(=O)[C@H](CC(N)=O)NC(=O)[C@@H]1CCCN1C(=O)[C@H](CO)NC(=O)[C@H](CO)NC(=O)[C@H](Cc1c[nH]cn1)NC(=O)[C@H](CCCNC(=N)N)NC(=O)[C@H](CC(C)C)NC(=O)[C@H](Cc1ccccc1)NC(=O)[C@H](CCCNC(=N)N)NC(=O)[C@H](C)NC(=O)[C@H](CC(C)C)NC(=O)[C@H](CCCNC(=N)N)NC(=O)[C@H](CCC(N)=O)NC(=O)[C@@H](NC(=O)[C@H](C)NC(=O)[C@@H]1CSSC[C@H](NC(=O)[C@@H](N)CCCCNC(=O)CC[C@H](NC(=O)CCCCCCCCCCCCCCCCCCC(=O)O)C(=O)O)C(=O)N[C@@H](CC(N)=O)C(=O)N[C@@H]([C@@H](C)O)C(=O)N[C@@H](C)C(=O)N[C@@H]([C@@H](C)O)C(=O)N1)[C@@H](C)O)C(=O)N1CCC[C@H]1C(=O)N[C@@H](CO)C(=O)N[C@@H](CO)C(=O)N[C@H](C(=O)N1CCC[C@H]1C(=O)N[C@H](C(=O)NCC(=O)N[C@@H](CO)C(=O)N[C@@H](CC(N)=O)C(=O)N[C@H](C(=O)N[C@@H](Cc1ccc(O)cc1)C(N)=O)[C@@H](C)O)C(C)C)[C@@H](C)O` [Example 63] (H-K([γGlu-C20 diacid])CNTATCATQRLARFLRHSSPNFGAIPSSTPVGSNTY-NH2; disulfide 2-7) are 0.037 nM, 5.13 nM, 0.825 nM and 130 nM.
Regarding `CC[C@H](C)[C@H](NC(=O)[C@H](C)NC(=O)CNC(=O)[C@H](Cc1ccccc1)NC(=O)[C@H](CC(N)=O)NC(=O)[C@@H]1CCCN1C(=O)[C@H](CO)NC(=O)[C@H](CO)NC(=O)[C@H](Cc1c[nH]cn1)NC(=O)[C@H](CCCNC(=N)N)NC(=O)[C@H](CC(C)C)NC(=O)[C@H](Cc1ccccc1)NC(=O)[C@H](Cc1c[nH]cn1)NC(=O)[C@H](C)NC(=O)[C@H](CC(C)C)NC(=O)[C@H](CCCNC(=N)N)NC(=O)[C@H](CCC(N)=O)NC(=O)[C@@H](NC(=O)[C@H](C)NC(=O)[C@@H]1CSSC[C@H](NC(=O)[C@@H](N)CCCCNC(=O)CC[C@H](NC(=O)CCCCCCCCCCCCCCCCCCC(=O)O)C(=O)O)C(=O)N[C@@H](CC(N)=O)C(=O)N[C@@H]([C@@H](C)O)C(=O)N[C@@H](C)C(=O)N[C@@H]([C@@H](C)O)C(=O)N1)[C@@H](C)O)C(=O)N1CCC[C@H]1C(=O)N[C@@H](CO)C(=O)N[C@@H](CO)C(=O)N[C@H](C(=O)N[C@@H](CC(N)=O)C(=O)N[C@H](C(=O)NCC(=O)N1CCC[C@H]1C(=O)N[C@@H](CC(N)=O)C(=O)N[C@H](C(=O)N[C@@H](Cc1ccc(O)cc1)C(N)=O)[C@@H](C)O)C(C)C)[C@@H](C)O` [Example 67] (H-K([γGlu-C20 diacid])CNTATCATQRLAHFLRHSSPNFGAIPSSTNVGPNTY-NH2; disulfide 2-7), the “Ratio hCT/hAmylin funct.” value in assay [1] (Table 6, human functional selectivity (hCTR EC50 / hAmylin-R EC50)) came to 5.2; in assay [1] (Table 6a, human functional selectivity (hCTR EC50 / hAmylin-R EC50), at least 5), 5.2; in assay [1] (Table 6j, hCTR funct. EC50 / hAmylin-R funct. EC50), 5.2; in assay [1] (Table 6k, hCTR funct. EC50 / hAmylin-R funct. EC50) it was 5.2. The EC50 in assay [1] (Table 6j, human amylin receptor functional) is 0.069 nM; in assay [3], 0.354 nM. Besides, the concentration for half-maximal inhibition (IC50) worked out at 0.09 nM at human amylin receptor and 4.63 nM in assay [2].
For `CC[C@H](C)[C@H](NC(=O)[C@H](C)NC(=O)CNC(=O)[C@H](Cc1ccccc1)NC(=O)[C@H](CC(N)=O)NC(=O)[C@@H]1CCCN1C(=O)[C@H](CO)NC(=O)[C@H](CO)NC(=O)[C@H](Cc1c[nH]cn1)NC(=O)[C@H](CCCNC(=N)N)NC(=O)[C@H](CC(C)C)NC(=O)[C@H](Cc1ccccc1)NC(=O)[C@H](Cc1c[nH]cn1)NC(=O)[C@H](C)NC(=O)[C@H](CC(C)C)NC(=O)[C@H](CCCNC(=N)N)NC(=O)[C@H](CCC(N)=O)NC(=O)[C@@H](NC(=O)[C@H](C)NC(=O)[C@@H]1CSSC[C@H](NC(=O)[C@@H](N)CCCCNC(=O)COCCOCCNC(=O)CC[C@H](NC(=O)CCCCCCCCCCCCCCCCCCC(=O)O)C(=O)O)C(=O)N[C@@H](CC(N)=O)C(=O)N[C@@H]([C@@H](C)O)C(=O)N[C@@H](C)C(=O)N[C@@H]([C@@H](C)O)C(=O)N1)[C@@H](C)O)C(=O)N1CCC[C@H]1C(=O)N[C@@H](CO)C(=O)N[C@@H](CO)C(=O)N[C@H](C(=O)N[C@@H](CC(N)=O)C(=O)N[C@H](C(=O)NCC(=O)N1CCC[C@H]1C(=O)N[C@@H](CC(N)=O)C(=O)N[C@H](C(=O)N[C@@H](Cc1ccc(O)cc1)C(N)=O)[C@@H](C)O)C(C)C)[C@@H](C)O` [Example 68] (H-K([AEEA-γGlu-C20 diacid])CNTATCATQRLAHFLRHSSPNFGAIPSSTNVGPNTY-NH2; disulfide 2-7), the EC50 in assay [1] (setting [4]) amounted to 0.054 nM; in assay [3], 0.932 nM. Further, the values for the IC50 (on human amylin receptor; in assay [2]) were 0.088 nM and 5.66 nM, respectively.
